Assay results as given in ChEMBL document CHEMBL1157112, “Discovery of anti-inflammatory clinical candidate E6201, inspired from resorcylic lactone LL-Z1640-2, III” (Bioorg Med Chem Lett, 2010).

Columns and labels:
THP-1 = experiment: Antiinflammatory activity in human THP1 cells assessed as inhibition of LPS-induced TNFalpha production by PLAP reporter assay; type: functional, cell-based
Mus musculus [1] = experiment: Antiarthritic activity in po dosed BALB/c mouse collagen antibody induced arthritis model assessed as inhibition of increase of arthritis score administered qd for 2 days after collagen antibody challenge measured after 2 days; type: functional; settings: 48 h
Mus musculus [2] = organism: Mus musculus; experiment: Ratio of ED50 for BALB/c mouse collagen antibody induced arthritis model to tolerated dose for BALB/c mouse collagen antibody induced arthritis model; type: functional
[3] = Oral bioavailability in mouse; type: ADME, organism-based; settings: in vivo
[4] = Toxicity in po dosed BALB/c mouse collagen antibody induced arthritis model assessed as tolerated dose; type: organism-based; settings: in vivo
[5] = Antiinflammatory activity in human B164 cells assessed as inhibition of LPS-induced Actin production by PLAP reporter assay; type: functional

IC50 (THP-1) | Compound | ED50 (Mus musculus [1]) | Ratio (Mus musculus [2]) | bioavailability [3] | MTD [4] | Activity [5]
1250 nM | C[C@@H]1/C=C\C(=O)[C@@H](O)[C@@H](O)C/C=C/c2cc(NCc3ccccc3)cc(O)c2C(=O)O[C@H]1C | – | – | – | – | –
– | C[C@]12C=CC(=O)C=C1CC[C@@H]1[C@@H]2[C@@H](O)C[C@@]2(C)[C@H]1CC[C@]2(O)C(=O)CO [PREDNISOLONE] | 3 mg/kg | 3 | – | 10 mg/kg | –
71 nM | C[C@@H]1/C=C\C(=O)[C@@H](O)[C@@H](O)C/C=C/c2cc(NCCO)cc(O)c2C(=O)O[C@H]1C | – | – | – | – | –
26 nM | CCCNc1cc(O)c2c(c1)/C=C/C[C@H](O)[C@H](O)C(=O)/C=C\[C@@H](C)[C@H](C)OC2=O | – | – | – | – | –
360 nM | C[C@@H]1/C=C\C(=O)[C@@H](O)[C@@H](O)C/C=C/c2cc(N)cc(O)c2C(=O)O[C@H]1C | – | – | 49% | – | –
351 nM | C[C@@H]1/C=C\C(=O)[C@@H](O)[C@@H](O)C/C=C/c2cc(N3CCNCC3)cc(O)c2C(=O)O[C@H]1C | – | – | – | – | –
129 nM | C[C@@H]1/C=C\C(=O)[C@@H](O)[C@@H](O)C/C=C/c2cc(N3CCOCC3)cc(O)c2C(=O)O[C@H]1C | – | – | 48% | – | –
– | COc1ccc2c(c1)c(CC(=O)O)c(C)n2C(=O)c1ccc(Cl)cc1 [INDOMETHACIN] | 1 mg/kg | 3 | – | 3 mg/kg | –
2070 nM | CCN(CC)c1cc(O)c2c(c1)/C=C/C[C@H](O)[C@H](O)C(=O)/C=C\[C@@H](C)[C@H](C)OC2=O | – | – | – | – | –

Compound | IC50 (THP-1) | ED50 (Mus musculus [1]) | Ratio (Mus musculus [2]) | bioavailability [3] | MTD [4] | Activity [5]
CNc1cc(O)c2c(c1)/C=C/C[C@H](O)[C@H](O)C(=O)/C=C\[C@@H](C)[C@H](C)OC2=O | 85 nM | 5 mg/kg | 6 | 29% | > 30 mg/kg | –
C[C@@H]1/C=C\C(=O)[C@@H](O)[C@@H](O)C/C=C/c2c(c(O)cc3c2ncn3C)C(=O)O[C@H]1C | 23 nM | 5 mg/kg | 1 | 49% | < 5 mg/kg | >10 µM
CCNc1cc(O)c2c(c1)/C=C/C[C@H](O)[C@H](O)C(=O)/C=C\[C@@H](C)[C@H](C)OC2=O [E-6201] | 56 nM | 5 mg/kg | 3 | 12% | > 30 mg/kg | –
CCn1cnc2c3c(c(O)cc21)C(=O)O[C@@H](C)[C@H](C)/C=C\C(=O)[C@@H](O)[C@@H](O)C/C=C/3 | 43 nM | 10 mg/kg | 1 | – | < 10 mg/kg | >10 µM
C[C@@H]1/C=C\C(=O)[C@@H](O)[C@@H](O)C/C=C/c2cc(N(C)C)cc(O)c2C(=O)O[C@H]1C | 437 nM | 15 mg/kg | 4 | 21% | 60 mg/kg | –
Cc1nc2c3c(c(O)cc2n1C)C(=O)O[C@@H](C)[C@H](C)/C=C\C(=O)[C@@H](O)[C@@H](O)C/C=C/3 | 108 nM | 10 mg/kg | 1 | – | < 10 mg/kg | >10 µM
